The record followed here is patent US12161653B2, “Treatment of submental fat” (Allergan Sales, LLC, priority 2011, dated 2024).

For series [1], the system named is subcutaneous abdominal tissue. Nature of the series: Clinical trial: histological changes, efficacy and safety by concentration. It counts as in vivo, human. The method, then: These findings are consistent with the increased intensity of adverse effects at the higher concentrations and larger volumes administered (0.4 mL/injection) in clinical trials. […] Concentrations at or below 0.25% were not tested, as they are at or below the concentration necessary to form micelles. The formation of micelles is essential for lipolytic activity.
(§1) A total of 274 subjects participated in 6 Phase ½ clinical studies that were conducted with SDI. Of these, 3 studies (n=179) evaluated SDI for the treatment of submental fat (SMF). Two studies evaluated SDI for the treatment of superficial lipoma. One study (SDI-08-10) evaluated the histological effects of SDI in subcutaneous abdominal tissue in subjects scheduled to undergo abdominoplasty.

The test system of another series is caudal lateral fat pads. The series can be described thus: Fat pad necrosis in Zucker rats after a single injection. It counts as in vivo. The note with it: for effectiveness: Zucker rats and clinical studies. The method, then: In the rats study, 8 rats received a single injection into the caudal lateral fat pads of 2.5 mL deoxycholic acid at 1%, 0.5%, 0.25%, or 0.1% concentrations, or 2.5 mL vehicle (0.9% benzyl alcohol in water).

Another series relates to submental fat (SMF). The series can be described thus: Example 3 phase II placebo-controlled study (CR-SMFRS, PR-SMFRS, PR-SMFIS, MRI, other scales). It counts as in vivo, human. The settings on record: for number of patients having at least 1-point improvement (CR-SMFRS) vs placebo group: week 16, 24 and 32. The method, then: A clinical study was conducted to evaluate the effectiveness of various doses of sodium deoxycholate in removing undesired submental fat (SMF) deposits. This clinical study was multicenter, randomized, double-blind, placebo-controlled study of sodium deoxycholate injection (“SDI” or alternatively “ATX-101”) versus placebo for the reduction of localized subcutaneous fat in the submental area (SMF) using magnetic resonance imaging (MRI) and a battery of clinician- and subject-reported measurements.
Study Design: FIG. 2 depicts the study Design and Treatment Schema associated with this procedure. This was a multicenter, randomized, double-blind, placebo-controlled study in which approximately 120 subjects received either up to 50 mg SDI, up to 100 mg SDI, or placebo in a 1:1:1 ratio (5 mg/mL:10 mg/mL:placebo) as indicated below, to evaluate the safety and efficacy of fixed concentrations of SDI given in up to 50 0.2-mL injections in up to 6 treatment sessions. No subject received more than 10 mL in any treatment session, nor did any subject undergo more than 6 treatment sessions. The initial 30 subjects were enrolled in a 2:2:1 ratio (i.e., 12, 12 and 6 subjects per group, for the two SDI groups and placebo, respectively) and the remaining subjects were randomized to balance the enrollment (approximately 28, 28, and […] per group for the two SDI groups and placebo, respectively).
To measure changes in SMF volume and thickness, MRI acquisitions were repeated prior to each treatment session and post-treatment (4 and 12 weeks after the last treatment cycle). Before subjects completed each MRI visit, the MRI images were evaluated for acceptability.
Subjects who successfully completed screening and baseline evaluations received up to 50 injections (0.2 mL each for a maximum volume of 10 mL) per treatment session, depending upon size and configuration of the SMF. Treatment was given at 4-week (±5 days) intervals. Study material injection sites were positioned using a 1.0 cm grid, which is designed to achieve an appropriate distribution of injections across the submental area.
Study Material, Dose, and Route of Administration: SDI (sodium deoxycholate injection) was provided in a concentration of 5 mg/mL (0.5%) and 10 mg/mL (1.0%) in 10 mM sodium phosphate, 0.9% (weight per volume [w/v]) sodium chloride, and 0.9% (w/v) benzyl alcohol in water for injection (WFI). Each vial (for single use only) contained at least 2.0 mL of accessible material, accessed by means of sterile syringe and needle through a rubber stopper closure.
Evaluation of Efficacy: The effects of 5 mg/mL SDI and 10 mg/mL SDI transcutaneous injections in the submental area were evaluated relative to placebo by measuring the following: (1) the reduction of fat using Clinician-Reported Submental Fat Rating Scale (CR-SMFRS), Patient-Reported Submental Fat Rating Scale (PR-SMFRS), and Patient-Reported Submental Fat Impact Scale (PR-SMFIS); (2) the volume of SMF using MRI; and (3) the thickness of SMF using MM. The efficacy evaluation criteria included: Clinician-Reported Submental Fat Rating Scale (CR-SMFRS), Patient-Reported Submental Fat Rating Scale (PR-SMFRS), Patient-Reported Submental Fat Impact Scale (PR-SMFIS) scores, and Magnetic resonance imaging (MM).
Other Evaluations: The effects of 5 mg/mL SDI and 10 mg/mL SDI transcutaneous injections in the submental area, relative to placebo, for changes in skin laxity (SLRS), Subject Self Rating Scale (SSRS), and subject-reported outcome measures (Self-Ratings of Attractiveness, Derriford Appearance Scale [DAS], Body Image Quality of Life Inventory [BIQLI]), other Subject-Reported Questions, and Post-treatment Questions) were evaluated. Measurements of the thickness of fat in the submental area were made using calipers. Photographs were taken to document treatment effects. […]

The subject of series [2] is submental fat (SMF) deposits. Nature of the series: Example 2 placebo-controlled clinical study, SMF rating scale. It counts as in vivo, human. The settings on record: for change from baseline at week 16 compared to placebo in SMF rating scale score: significance (ANCOVA): every 4 weeks, up to 4 treatments. The method, then: A clinical study was conducted to evaluate the effectiveness of various doses of sodium deoxycholate in removing undesired submental fat (SMF) deposits. A multicenter, randomized, double-blind, placebo-controlled, parallel-group comparison of 3 concentrations of sodium deoxycholate (0.5, 1.0, and 2.0 percent w/v) in sterile water with 0.9% benzyl alcohol and placebo was conducted to determine the efficacy of reduction in SMF deposits. Placebo injection consisted of sterile water with 0.9% benzyl alcohol.
All subjects were to have up to 4 treatment sessions at intervals of no less than 4 weeks (±3 days) between treatments.
Eligible subjects were concurrently randomized into one of the following groups: • Placebo injected every 4 weeks for up to 4 treatments • 0.5% w/v sodium deoxycholate injected every 4 weeks for up to 4 treatments • 1.0% w/v sodium deoxycholate injected every 4 weeks for up to 4 treatments • 2.0% w/v sodium deoxycholate injected every 4 weeks for up to 4 treatments
85 subjects were randomized: 21 subjects to the 0.5% w/v sodium deoxycholate group, 20 subjects to the 1.0% w/v sodium deoxycholate group; 22 subjects to the 2.0% w/v sodium deoxycholate (DCA) group; and 22 subjects to the placebo group. 73 subjects completed the study.
Subject selection included males or non-pregnant, non-lactating females aged 25 to 65 years, inclusive, on the date of randomization, with SMF that was considered undesirable by the subject and graded by the investigator as 2 or 3 using the SMF rating scale, and a history of maintenance of a stable body weight, in the judgment of the investigator, for at least 6 months before randomization.

Series [3] in a line: Pharmacokinetics of SDI in clinical studies (plasma deoxycholate). It counts as in vivo. The settings on record: human. The method, then: (§2) The most commonly observed adverse events associated with the treatment area include pain, erythema, induration, swelling, bruising, and numbness. Less frequently, pruritus and paresthesia have been reported. […] The pharmacokinetics of SDI is linear, illustrating the predictable overall exposure. Plasma concentrations were transient with peak concentrations observed at approximately 15 to 30 minutes, returning to endogenous deoxycholate levels within 24 hours after dosing.

For a further series, the system named is submental fat. Nature of the series: Earlier clinical studies of SDI for submental fat (SMFRS, SSRS). It counts as in vivo, human. The method, then:
as §1
The SMF scale used to assess efficacy in clinical studies with SDI has been validated and shown to be reliable. […] The expected improvement from treatment with SDI is consistent with what patients who desire aesthetic changes would find satisfactory.

The nature of series [4]: In vitro micelle formation. It counts as physicochemical. The source says: When secreted into the small intestine, bile acids form micelles with dietary fats to aid in lipolysis and lipid absorption.
Series [5] is described as follows: Phase 1/2 clinical studies with SDI: safety. It counts as in vivo, human. The method, then: as §1, §2

SMILES strings stand for the structures. Bounds are passed on as bounds.

For the compound `C[C@H](CCC(=O)O)[C@H]1CC[C@H]2[C@@H]3CC[C@@H]4C[C@H](O)CC[C@]4(C)[C@H]3C[C@H](O)[C@]12C` [deoxycholic acid], the histological changes result in series [1] (2.0%) is “marked necrosis, resulting in lipid lake formation and vessel damage”; in series [1] (4.0%), “marked necrosis, resulting in lipid lake formation and vessel damage”. Besides, in the series on caudal lateral fat pads (1.0% vs 0.5%, single 2.5 mL injection), the “fat pad necrosis relative to 0.5%” value was “approximately 2.5 times”.
As to `C[C@H](CCC(=O)[O-])[C@H]1CC[C@H]2[C@@H]3CC[C@@H]4C[C@H](O)CC[C@]4(C)[C@H]3C[C@H](O)[C@]12C.[Na+]` [sodium deoxycholate], in the series with submental fat (SMF) (0.5%), the “CR-SMFRS change from baseline (FIG. 4)” value is listed as “marked reduction of submental fat as compared with placebo”; the “SMF thickness and volume by MRI” value was “statistically significant reduction”; the “SSRS, patient impact scores, patient impact questionnaire, improvement in appearance of the chin and satisfaction” value is “statistically significant changes”; the “number of patients having at least 1-point improvement (CR-SMFRS) vs placebo group” value is given as “greater”. In the series on submental fat (SMF) (1.0%), the “CR-SMFRS change from baseline (FIG. 4)” value is given as “marked reduction of submental fat as compared with placebo”; the “SMF thickness and volume by MRI” value was “statistically significant reduction”; the “SSRS, patient impact scores, patient impact questionnaire, improvement in appearance of the chin and satisfaction” value is listed as “statistically significant changes”; the “statistical significance of CR-SMFRS reduction vs placebo” value is recorded as “statistically significant at most time points”. In the series with submental fat (SMF) (1.0%), the “number of patients having at least 1-point improvement (CR-SMFRS) vs placebo group” value was “greater”. Besides, in the series with submental fat (SMF) (1.0% and 0.5%), the “dose response by CR-SMFRS” value is listed as “good dose response” and the “dose response by PR-SMFRS” value is listed as “good dose response”. Moreover, in the series with submental fat (SMF) (1.0% vs 0.5%), the “SMF thickness and volume by MRI, compared with 0.5%” value was “better dose response and greater reduction”; the “relative effectiveness by CR-SMFRS” value was “more effective than 0.5%”; the “relative effectiveness by PR-SMFRS” value was “more effective than 0.5%”. Also, in the series on submental fat (SMF) (1.0%, week 16 and week 32), the “1-grade reduction, CR-SMFRS” value is on record as “Statistically significance was obtained” and the “1-grade reduction, PR-SMFRS” value is recorded as “Statistically significance was obtained”. The “2-grade reduction, PR-SMFRS” value with submental fat (SMF) (1.0%, week 32) is given as “Statistically significance was obtained”. Also, the “CR-SMFRS with BMI as a standard (FIG. 18)” value in the series with submental fat (SMF) (ATX-101 treatments) was “significant submental fat reduction”. Besides, the CR-SMFRS/body weight ratio entry with submental fat (SMF) (FIGS. 20 and 21) is listed as “decreased significantly”. In series [2] (0.5% w/v), the “time points with statistically significant change from baseline in SMF rating scale score compared to placebo” value was “weeks 8, 12, 16 and 24”; the “change from baseline at week 16 compared to placebo in SMF rating scale score: significance (ANCOVA)” value (“change from baseline … significance (ANCOVA)” for short) is “statistically significant”. For the same compound, the “time points with statistically significant improvement in SMF rating scale score compared to placebo” value in series [2] (1.0% w/v) was “weeks 12, 16 and 24”. The “change from baseline … significance (ANCOVA)” value in series [2] (1% w/v) is “statistically significant”. The “relative effectiveness by visual assessment methods” value in series [2] (2.0% vs 1.0% or 0.5%) was “less effective than ATX-101 1.0% or 0.5%”. For the same compound, in series [2] (2% w/v), the “time points with statistically significant improvement in SMF rating scale score compared to placebo” value is reported as “only at week 24” and the “change from baseline … significance (ANCOVA)” value was “not”. In series [3], the “pharmacokinetics (linearity)” value is recorded as “linear”, the “time of peak plasma concentrations” value lay within 15 to 30 min and the “time to return to endogenous deoxycholate levels after dosing” value is not above 24 h. Moreover, in the series on submental fat (0.5% [0.2 mL/1.0 cm]), the SSRS scores entry was “significantly better than placebo” and the “change in SMFRS score at Week 16” value was “significantly better than placebo”. For the same compound, in the series with submental fat (1.0% [0.2 mL/1.0 cm]), the SSRS scores entry is “significantly better than placebo” and the “change in SMFRS score at Week 16” value is on record as “significantly better than placebo”. Also, in series [4], the “minimal concentration at which micelle formation was observed” value turned out to be 0.25 % w/v. Besides, in the series on caudal lateral fat pads (0.5% w/v), the effectiveness result is on record as “effective”. The effectiveness entry in the series with caudal lateral fat pads (1.0% w/v) was “effective”. Further, in the series with caudal lateral fat pads (doses at and below 0.25%), the “effect compared with vehicle” value is listed as “no different than vehicle”. The “safety profile across studies” value in series [5] (0.5% vs 2.0% and 4.0%) was “better safety profile than the higher concentrations”. Besides, the “safety profile across studies” value in series [5] (1.0% vs 2.0% and 4.0%) is recorded as “better safety profile than the higher concentrations”. For the same compound, the safety and tolerability entry in series [5] (all concentrations in clinical studies) was “safe and well tolerated”. For the same compound, the adverse events result in series [5] (clinical studies, not systemic) was “local, transient injection site reactions of mild to moderate intensity”.
